Measurements: patent US10870647B2, “Imidazopyridine derivative, method for preparing same, and pharmaceutical composition containing same as active ingredient for preventing or treating cancer” (DAEGU-GYEONGBUK MEDICAL INNOVATION FOUNDATION, priority 2016, dated 2020)

Assays:
Assay in all cases: Kinase selectivity, scanMAX Kinase assay panel (DiscoverX), % control at 1 uM
Type in all cases: binding
[1] = target: T1, scanMAX Kinase assay panel (Homo sapiens, UniProt Q09013); settings: DMPK; 1 uM; read-out: Percent Control (%)
T1 construct: purchased DiscoverX
T1 sequence (Q09013 1-629): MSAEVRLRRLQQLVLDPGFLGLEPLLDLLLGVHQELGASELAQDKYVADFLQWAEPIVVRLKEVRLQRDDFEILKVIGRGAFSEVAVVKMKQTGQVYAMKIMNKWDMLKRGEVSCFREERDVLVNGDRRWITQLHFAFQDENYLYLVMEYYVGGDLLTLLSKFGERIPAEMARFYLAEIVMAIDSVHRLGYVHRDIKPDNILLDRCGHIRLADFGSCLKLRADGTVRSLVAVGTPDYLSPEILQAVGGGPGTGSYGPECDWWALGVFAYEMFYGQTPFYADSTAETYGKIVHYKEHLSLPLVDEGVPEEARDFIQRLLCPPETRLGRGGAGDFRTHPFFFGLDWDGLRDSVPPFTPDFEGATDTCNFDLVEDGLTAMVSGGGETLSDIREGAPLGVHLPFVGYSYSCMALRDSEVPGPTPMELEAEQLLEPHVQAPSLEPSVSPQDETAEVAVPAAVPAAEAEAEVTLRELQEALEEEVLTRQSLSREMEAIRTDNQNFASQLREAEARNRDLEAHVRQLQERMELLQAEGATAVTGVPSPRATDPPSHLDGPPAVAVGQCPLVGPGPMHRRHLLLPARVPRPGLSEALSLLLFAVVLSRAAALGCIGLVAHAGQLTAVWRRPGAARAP
Outline: (§1)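 Compounds were tested at 1 uM in DMSO against each enzyme in the panel. Percent control was calculated as (compound − positive control)/(negative control − positive control) × 100, and a compound was scored active on a kinase when this value fell below 35.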

[2] = target: T2, scanMAX Kinase assay panel (Homo sapiens, UniProt Q9Y616); settings: IRAK3; 1 uM; read-out: Percent Control (%)
T2 construct: purchased DiscoverX
T2 sequence (Q9Y616 1-596): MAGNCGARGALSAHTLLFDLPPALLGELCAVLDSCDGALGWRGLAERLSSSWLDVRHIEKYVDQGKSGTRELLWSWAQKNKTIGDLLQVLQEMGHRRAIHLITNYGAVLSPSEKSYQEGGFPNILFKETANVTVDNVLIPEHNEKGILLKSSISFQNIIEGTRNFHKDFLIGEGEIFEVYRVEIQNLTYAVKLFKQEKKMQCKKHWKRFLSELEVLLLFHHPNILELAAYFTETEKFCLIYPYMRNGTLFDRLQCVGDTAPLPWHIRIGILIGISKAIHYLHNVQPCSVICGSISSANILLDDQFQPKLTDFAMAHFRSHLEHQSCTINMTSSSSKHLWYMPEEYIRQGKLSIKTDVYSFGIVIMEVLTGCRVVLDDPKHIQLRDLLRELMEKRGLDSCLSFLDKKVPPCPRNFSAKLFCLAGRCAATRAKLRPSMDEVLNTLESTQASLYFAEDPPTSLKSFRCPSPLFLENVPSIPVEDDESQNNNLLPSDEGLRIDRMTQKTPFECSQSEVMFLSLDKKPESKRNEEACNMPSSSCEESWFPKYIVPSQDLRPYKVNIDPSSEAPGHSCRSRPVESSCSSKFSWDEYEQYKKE
Outline: as §1

[3] = target: T3, scanMAX Kinase assay panel (Homo sapiens, UniProt Q13153); settings: PAK1; 1 uM; read-out: Percent Control (%)
T3 construct: purchased DiscoverX
T3 sequence (Q13153 whole entry): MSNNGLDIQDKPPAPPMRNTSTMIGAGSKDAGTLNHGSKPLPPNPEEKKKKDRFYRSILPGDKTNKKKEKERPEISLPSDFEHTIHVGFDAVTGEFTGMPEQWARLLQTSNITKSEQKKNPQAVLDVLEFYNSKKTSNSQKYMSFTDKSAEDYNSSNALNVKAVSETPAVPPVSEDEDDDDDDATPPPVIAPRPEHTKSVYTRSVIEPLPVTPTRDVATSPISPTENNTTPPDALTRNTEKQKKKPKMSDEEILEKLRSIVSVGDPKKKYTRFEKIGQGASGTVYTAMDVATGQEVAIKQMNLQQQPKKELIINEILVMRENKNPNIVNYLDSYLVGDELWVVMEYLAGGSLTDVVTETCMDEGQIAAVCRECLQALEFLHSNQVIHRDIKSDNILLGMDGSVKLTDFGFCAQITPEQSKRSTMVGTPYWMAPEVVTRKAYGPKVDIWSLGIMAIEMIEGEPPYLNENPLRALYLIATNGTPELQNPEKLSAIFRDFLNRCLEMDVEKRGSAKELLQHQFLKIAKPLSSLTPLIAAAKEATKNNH
Outline: as §1

[4] = target: T4, scanMAX Kinase assay panel (Homo sapiens, UniProt Q9P2K8, S808G); settings: GCN2 (Kin.Dom.2, S808G); 1 uM; read-out: Percent Control (%)
T4 construct: purchased DiscoverX
T4 sequence (Q9P2K8 whole entry S808G): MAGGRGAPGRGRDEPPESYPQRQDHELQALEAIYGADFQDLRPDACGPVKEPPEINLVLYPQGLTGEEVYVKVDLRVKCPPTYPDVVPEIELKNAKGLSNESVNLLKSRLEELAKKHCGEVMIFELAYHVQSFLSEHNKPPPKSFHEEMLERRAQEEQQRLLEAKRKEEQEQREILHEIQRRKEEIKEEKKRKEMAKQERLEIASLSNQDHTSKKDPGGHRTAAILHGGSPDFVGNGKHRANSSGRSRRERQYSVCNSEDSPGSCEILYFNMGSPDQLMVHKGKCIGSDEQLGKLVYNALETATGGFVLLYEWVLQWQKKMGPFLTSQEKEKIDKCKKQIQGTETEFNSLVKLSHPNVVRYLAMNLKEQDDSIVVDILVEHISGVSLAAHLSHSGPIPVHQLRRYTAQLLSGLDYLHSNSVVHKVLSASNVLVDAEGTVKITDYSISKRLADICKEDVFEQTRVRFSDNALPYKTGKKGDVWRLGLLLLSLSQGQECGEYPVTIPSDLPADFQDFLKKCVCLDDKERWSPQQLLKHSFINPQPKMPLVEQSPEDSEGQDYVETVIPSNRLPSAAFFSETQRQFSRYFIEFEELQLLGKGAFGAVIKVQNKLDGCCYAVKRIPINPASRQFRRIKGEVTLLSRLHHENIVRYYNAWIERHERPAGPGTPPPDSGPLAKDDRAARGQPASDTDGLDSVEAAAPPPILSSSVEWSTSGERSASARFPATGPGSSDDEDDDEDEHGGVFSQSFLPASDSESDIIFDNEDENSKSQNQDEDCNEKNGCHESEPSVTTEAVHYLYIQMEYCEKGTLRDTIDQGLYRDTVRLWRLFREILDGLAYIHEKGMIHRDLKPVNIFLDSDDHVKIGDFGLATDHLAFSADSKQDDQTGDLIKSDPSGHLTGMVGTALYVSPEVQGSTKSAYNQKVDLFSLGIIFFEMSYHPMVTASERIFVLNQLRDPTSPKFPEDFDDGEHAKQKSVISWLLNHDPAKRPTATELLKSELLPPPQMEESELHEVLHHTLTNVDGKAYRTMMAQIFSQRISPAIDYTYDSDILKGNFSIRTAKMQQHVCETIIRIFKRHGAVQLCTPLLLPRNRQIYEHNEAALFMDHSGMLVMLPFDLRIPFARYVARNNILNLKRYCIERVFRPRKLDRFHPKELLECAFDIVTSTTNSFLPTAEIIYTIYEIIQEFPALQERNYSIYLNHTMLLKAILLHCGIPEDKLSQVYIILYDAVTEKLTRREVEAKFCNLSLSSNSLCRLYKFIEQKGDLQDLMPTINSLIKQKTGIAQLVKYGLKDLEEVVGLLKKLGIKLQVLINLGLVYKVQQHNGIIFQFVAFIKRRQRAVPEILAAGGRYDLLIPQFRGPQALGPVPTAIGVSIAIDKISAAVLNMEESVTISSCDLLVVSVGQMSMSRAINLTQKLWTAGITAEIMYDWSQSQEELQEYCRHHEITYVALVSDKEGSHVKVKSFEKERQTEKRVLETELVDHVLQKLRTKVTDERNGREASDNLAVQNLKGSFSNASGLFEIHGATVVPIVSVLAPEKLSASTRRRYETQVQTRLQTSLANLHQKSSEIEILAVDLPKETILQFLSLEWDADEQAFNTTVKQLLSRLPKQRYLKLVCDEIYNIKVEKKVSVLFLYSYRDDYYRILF
Outline: as §1

[5] = target: T5, scanMAX Kinase assay panel (Homo sapiens, UniProt P49760); settings: CLK2; 1 uM; read-out: Percent Control (%)
T5 construct: purchased DiscoverX
T5 sequence (P49760 whole entry): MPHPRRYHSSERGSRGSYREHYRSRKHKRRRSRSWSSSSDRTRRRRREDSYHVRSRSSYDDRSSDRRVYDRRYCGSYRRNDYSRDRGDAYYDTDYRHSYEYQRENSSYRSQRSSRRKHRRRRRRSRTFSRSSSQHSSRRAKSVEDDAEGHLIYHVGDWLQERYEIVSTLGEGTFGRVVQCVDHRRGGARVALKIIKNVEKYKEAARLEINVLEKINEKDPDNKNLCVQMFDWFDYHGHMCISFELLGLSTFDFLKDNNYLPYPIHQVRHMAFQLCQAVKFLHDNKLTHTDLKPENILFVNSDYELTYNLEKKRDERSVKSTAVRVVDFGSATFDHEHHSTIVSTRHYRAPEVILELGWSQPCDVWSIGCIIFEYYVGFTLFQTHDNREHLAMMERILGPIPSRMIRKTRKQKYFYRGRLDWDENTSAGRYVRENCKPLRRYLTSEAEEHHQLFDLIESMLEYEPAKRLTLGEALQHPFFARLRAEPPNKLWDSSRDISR
Outline: as §1

[6] = target: T6, scanMAX Kinase assay panel (Homo sapiens, UniProt O00329); settings: PIK3CD; 1 uM; read-out: Percent Control (%)
T6 construct: purchased DiscoverX
T6 sequence (O00329 1-1044): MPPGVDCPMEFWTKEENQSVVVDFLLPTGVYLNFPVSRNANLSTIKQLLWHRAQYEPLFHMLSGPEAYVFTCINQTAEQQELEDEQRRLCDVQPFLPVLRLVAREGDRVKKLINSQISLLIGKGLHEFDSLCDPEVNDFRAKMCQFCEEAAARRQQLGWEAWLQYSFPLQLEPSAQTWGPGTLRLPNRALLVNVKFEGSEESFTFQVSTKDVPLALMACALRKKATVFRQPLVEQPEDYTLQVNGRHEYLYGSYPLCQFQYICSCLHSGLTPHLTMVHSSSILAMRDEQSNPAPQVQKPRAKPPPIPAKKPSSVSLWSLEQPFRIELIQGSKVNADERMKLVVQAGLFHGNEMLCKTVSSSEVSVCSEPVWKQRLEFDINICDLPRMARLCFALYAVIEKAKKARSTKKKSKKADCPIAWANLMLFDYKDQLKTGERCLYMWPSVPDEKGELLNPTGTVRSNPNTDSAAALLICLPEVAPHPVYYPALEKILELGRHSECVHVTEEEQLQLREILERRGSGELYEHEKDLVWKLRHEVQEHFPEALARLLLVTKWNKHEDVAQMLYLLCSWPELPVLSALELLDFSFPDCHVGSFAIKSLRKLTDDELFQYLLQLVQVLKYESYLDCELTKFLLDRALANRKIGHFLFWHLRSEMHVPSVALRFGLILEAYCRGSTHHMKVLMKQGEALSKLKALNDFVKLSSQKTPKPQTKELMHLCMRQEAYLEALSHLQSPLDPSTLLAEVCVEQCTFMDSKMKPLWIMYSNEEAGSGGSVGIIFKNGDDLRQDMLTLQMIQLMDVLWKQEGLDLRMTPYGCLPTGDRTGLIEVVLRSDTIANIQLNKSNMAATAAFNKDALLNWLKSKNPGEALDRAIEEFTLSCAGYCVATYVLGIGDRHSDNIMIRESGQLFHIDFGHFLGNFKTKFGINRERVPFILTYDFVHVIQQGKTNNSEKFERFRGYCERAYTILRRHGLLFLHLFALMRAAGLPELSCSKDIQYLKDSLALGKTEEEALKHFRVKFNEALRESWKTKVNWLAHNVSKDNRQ
Outline: as §1

[7] = target: T7, scanMAX Kinase assay panel (Homo sapiens, UniProt P42336, Q546K); settings: PIK3CA (Q546K); 1 uM; read-out: Percent Control (%)
T7 construct: purchased DiscoverX
T7 sequence (P42336 whole entry Q546K): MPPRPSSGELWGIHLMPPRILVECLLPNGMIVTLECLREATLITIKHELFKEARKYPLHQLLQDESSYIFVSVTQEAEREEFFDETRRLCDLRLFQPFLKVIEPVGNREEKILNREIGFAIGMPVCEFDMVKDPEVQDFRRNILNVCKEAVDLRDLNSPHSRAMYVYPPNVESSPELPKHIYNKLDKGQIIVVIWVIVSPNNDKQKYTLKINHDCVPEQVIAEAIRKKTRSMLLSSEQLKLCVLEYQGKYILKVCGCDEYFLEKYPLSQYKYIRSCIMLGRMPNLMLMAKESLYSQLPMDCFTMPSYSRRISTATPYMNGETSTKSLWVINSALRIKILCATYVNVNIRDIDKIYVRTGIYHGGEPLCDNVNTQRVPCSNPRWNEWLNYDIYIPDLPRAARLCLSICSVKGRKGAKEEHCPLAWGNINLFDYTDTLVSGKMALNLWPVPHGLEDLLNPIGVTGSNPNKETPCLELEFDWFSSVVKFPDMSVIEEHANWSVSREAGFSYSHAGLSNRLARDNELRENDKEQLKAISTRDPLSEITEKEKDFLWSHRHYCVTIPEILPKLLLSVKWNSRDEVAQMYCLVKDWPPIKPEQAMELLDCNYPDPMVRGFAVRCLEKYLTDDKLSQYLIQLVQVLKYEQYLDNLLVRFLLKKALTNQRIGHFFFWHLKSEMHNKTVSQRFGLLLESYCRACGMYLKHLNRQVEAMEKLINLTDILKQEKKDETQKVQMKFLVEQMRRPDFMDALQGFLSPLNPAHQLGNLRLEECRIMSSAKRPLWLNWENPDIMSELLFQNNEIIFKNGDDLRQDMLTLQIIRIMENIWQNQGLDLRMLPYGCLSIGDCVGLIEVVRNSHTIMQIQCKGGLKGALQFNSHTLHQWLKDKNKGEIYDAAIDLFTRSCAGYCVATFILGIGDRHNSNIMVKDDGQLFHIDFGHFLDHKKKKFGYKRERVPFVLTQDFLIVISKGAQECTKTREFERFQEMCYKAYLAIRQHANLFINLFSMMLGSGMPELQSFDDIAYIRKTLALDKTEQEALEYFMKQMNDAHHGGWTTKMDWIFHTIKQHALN
Outline: as §1

SMILES	remaining binding at 1 µM [1] [%]	remaining binding at 1 µM [2] [%]	remaining binding at 1 µM [3] [%]	remaining binding at 1 µM [4] [%]	remaining binding at 1 µM [5] [%]	remaining binding at 1 µM [6] [%]	remaining binding at 1 µM [7] [%]
Cc1ccc(C(=O)Nc2ccc(CN3CCN(C)CC3)c(C(F)(F)F)c2)cc1C#Cc1cnc2c(Nc3cnn(C)c3)cccn12 [Example 1, 4-methyl-3-((8-((1-methyl-1H-pyrazol-4-yl)amino)imidazo[1,2-a]pyridin-3-yl)ethynyl)-N-(4-((4-methylpiperazin-1-yl)methyl)-3-(trifluoromethyl)phenyl)benzamide]	100	84	89	0	64	89	83
Cc1cn(-c2cc(NC(=O)c3ccc(C)c(C#Cc4cnc5c(Nc6cnn(C)c6)cccn45)c3)cc(C(F)(F)F)c2)cn1 [Example 12, 4-methyl-N-(3-(4-methyl-1H-imidazol-1-yl)-5-(trifluoromethyl)phenyl)-3-((8-((1-methyl-1H-pyrazol-4-yl)amino)imidazo[1,2-a]pyridin-3-yl)ethynyl)benzamide]	96	72	87	76	91	100	100
Cc1ccc(NC(=O)C2(C(=O)Nc3ccc(F)cc3)CC2)cc1C#Cc1cnc2c(Nc3cnn(C(C)C)c3)cccn12 [Example 78]	92	87	100	89	100	100	89
